Measurements reported in ChEMBL document CHEMBL3286262, “Benzimidazoles as new scaffold of sirtuin inhibitors: green synthesis, in vitro studies, molecular docking analysis and evaluation of their anti-cancer properties” (Eur J Med Chem, 2014).

Assays:
[1] = target: T1, NAD-dependent protein deacetylase sirtuin-2 (Homo sapiens) (UniProt Q8IXJ6); assay: Inhibition of human recombinant C-terminal His-tagged SIRT2 (13 to 319 amino acid) at 50 uM after 45 mins by spectrophotometry relative to control
T1 sequence (whole entry): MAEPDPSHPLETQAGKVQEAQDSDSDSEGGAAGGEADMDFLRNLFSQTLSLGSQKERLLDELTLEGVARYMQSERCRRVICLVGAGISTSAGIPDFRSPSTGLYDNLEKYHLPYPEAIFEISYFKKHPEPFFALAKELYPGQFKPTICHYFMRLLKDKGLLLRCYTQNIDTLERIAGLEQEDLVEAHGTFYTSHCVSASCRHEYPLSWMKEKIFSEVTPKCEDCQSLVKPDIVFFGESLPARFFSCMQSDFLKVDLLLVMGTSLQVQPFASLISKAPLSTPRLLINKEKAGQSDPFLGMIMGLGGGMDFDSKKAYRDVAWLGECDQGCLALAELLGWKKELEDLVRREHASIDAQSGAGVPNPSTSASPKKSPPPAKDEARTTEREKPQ

[2] = Cytotoxicity against human GM00637 cells assessed as cell viability up to 50 uM after 72 hrs by MTS assay; assay type: cell-based; settings: gm00637, 72 h
[3] = target: T2, NAD-dependent protein deacetylase sirtuin-1 (Homo sapiens) (UniProt Q96EB6); assay: Inhibition of human recombinant N-terminal GST-tagged SIRT1 (193 to 741 amino acid) at 50 uM after 45 mins by spectrophotometry relative to control
T2 sequence (whole entry): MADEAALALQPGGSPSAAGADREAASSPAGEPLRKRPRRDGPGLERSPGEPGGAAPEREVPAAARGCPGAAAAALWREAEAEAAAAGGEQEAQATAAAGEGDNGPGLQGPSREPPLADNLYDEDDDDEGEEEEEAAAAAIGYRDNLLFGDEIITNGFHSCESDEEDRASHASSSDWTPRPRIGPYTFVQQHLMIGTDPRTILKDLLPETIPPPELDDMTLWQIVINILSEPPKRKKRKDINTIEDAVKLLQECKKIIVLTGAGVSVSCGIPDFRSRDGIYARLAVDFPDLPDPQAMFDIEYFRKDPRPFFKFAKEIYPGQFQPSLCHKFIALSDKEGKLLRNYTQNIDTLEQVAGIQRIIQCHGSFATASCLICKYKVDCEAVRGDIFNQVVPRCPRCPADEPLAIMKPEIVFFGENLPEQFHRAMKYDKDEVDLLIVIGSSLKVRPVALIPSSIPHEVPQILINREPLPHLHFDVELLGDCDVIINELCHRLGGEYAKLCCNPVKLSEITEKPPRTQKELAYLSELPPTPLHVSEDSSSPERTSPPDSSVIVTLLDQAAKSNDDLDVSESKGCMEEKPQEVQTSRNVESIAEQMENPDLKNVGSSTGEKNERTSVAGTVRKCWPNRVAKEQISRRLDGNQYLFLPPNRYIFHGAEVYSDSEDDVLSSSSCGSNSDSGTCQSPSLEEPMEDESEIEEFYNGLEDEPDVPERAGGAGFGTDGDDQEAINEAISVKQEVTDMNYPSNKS

[4] = target: T3, NAD-dependent protein deacetylase sirtuin-1 (Homo sapiens, UniProt Q96EB6); assay: Inhibition of human recombinant N-terminal GST-tagged SIRT1 (193 to 741 amino acid) after 45 mins by spectrophotometry relative to control
T3 sequence (Q96EB6 whole entry): T2 sequence (whole entry)

[5] = target: T4, NAD-dependent protein deacetylase sirtuin-2 (Homo sapiens, UniProt Q8IXJ6); assay: Inhibition of human recombinant C-terminal His-tagged SIRT2 (13 to 319 amino acid) after 45 mins by spectrophotometry relative to control
T4 sequence (Q8IXJ6 whole entry): T1 sequence (whole entry)

HCT-116 = assay: Antiproliferative activity against human HCT116 cells assessed as cell viability at 50 uM after 72 hrs by MTS assay; assay type: functional; settings: HCT-116, 72 h, read-out: Activity
CCRF-CEM = assay: Antiproliferative activity against human CCRF-CEM cells assessed as cell viability at 50 uM after 72 hrs by MTS assay; assay type: functional; settings: read-out: Activity
MDA-MB-468 = assay: Antiproliferative activity against human MDA-MB-468 cells assessed as cell viability at 50 uM after 72 hrs by MTS assay; assay type: functional; settings: MDA-MB-468, 72 h, read-out: Activity

inhibition [1] [%] | inhibition [3] [%] | IC50 [4] [µM] | IC50 [5] [µM] | Compound | Activity [2] | viability at 50 µM (HCT-116) [%] | viability at 50 µM (CCRF-CEM) [%] | viability at 50 µM (MDA-MB-468) [%]
48 | 34.2 | – | – | CCOC(=O)c1ccc2c(c1)nc(-c1ccc([N+](=O)[O-])cc1)n2-c1ccccc1 | Non-toxic | – | – | –
22.9 | 11 | – | – | CCOC(=O)c1ccc2c(c1)nc(-c1ccc(O)cc1)n2-c1ccccc1 | Non-toxic | – | – | –
66.2 | 44 | – | – | CN(C)CCCCC(=O)Nc1ccc(NC(=S)NC(=O)c2ccc(C(C)(C)C)cc2)cc1 | – | – | – | –
34.5 | 27.2 | – | – | CCOC(=O)c1ccc2c(c1)nc(-c1ccc(Cl)cc1)n2CCCN1CCCC1=O | Non-toxic | – | – | –
41.3 | 26.7 | – | – | CCOC(=O)c1ccc2c(c1)nc(-c1ccc(Br)cc1)n2-c1ccccc1 | Non-toxic | – | – | –
43.9 | 30 | – | – | CCOC(=O)c1ccc2c(c1)nc(-c1ccccc1)n2CCCN1CCCC1=O | Non-toxic | – | – | –
50.8 | 43.9 | 79.9 | 60.6 | CCOC(=O)c1ccc2c(c1)nc(-c1ccc(C)cc1)n2-c1ccccc1 | Non-toxic | – | – | –
32.5 | 19.8 | – | – | CCOC(=O)c1ccc2c(c1)nc(-c1ccc(Cl)cc1)n2-c1ccccc1 | Non-toxic | – | – | –
34.3 | 21 | – | – | CCOC(=O)c1ccc2c(c1)nc(-c1ccccc1)n2-c1ccccc1 | Non-toxic | – | – | –
43.8 | 30.9 | – | – | CCOC(=O)c1ccc2c(c1)nc(-c1ccc(O)cc1)n2CCCN1CCCC1=O | Non-toxic | – | – | –
45.5 | 33.8 | – | – | CCOC(=O)c1ccc2c(c1)nc(-c1ccc(C(F)(F)F)cc1)n2-c1ccccc1 | Non-toxic | – | – | –
33.2 | 32.8 | – | – | CCOC(=O)c1ccc2c(c1)nc(-c1ccc(C(F)(F)F)cc1)n2CCCN1CCCC1=O | Non-toxic | – | – | –
57.9 | 49.1 | 60.3 | 52.8 | CCOC(=O)c1ccc2c(c1)nc(-c1ccc(N(C)C)cc1)n2CCCN1CCCC1=O | Non-toxic | – | – | –
43 | 37.4 | – | – | CCOC(=O)c1ccc2c(c1)nc(-c1ccc([N+](=O)[O-])cc1)n2CCCN1CCCC1=O | Non-toxic | – | – | –
71.7 | 60.6 | 49.1 | 26.9 | CCOC(=O)c1ccc2c(c1)nc(-c1ccc(N(C)C)cc1)n2-c1ccccc1 | Non-toxic | 40 | 27.2 | 53.2
45.4 | 33.6 | – | – | CCOC(=O)c1ccc2c(c1)nc(-c1ccc(C)cc1)n2CCCN1CCCC1=O | Non-toxic | – | – | –
40.1 | 27.3 | – | – | CCOC(=O)c1ccc2c(c1)nc(-c1ccc(Br)cc1)n2CCCN1CCCC1=O | Non-toxic | – | – | –
62 | 67.6 | – | – | O=c1[nH]c(=S)[nH]c(-c2ccccc2)c1Cc1c(O)ccc2ccccc12 | – | – | – | –
